Test results taken from patent publication US6492342B1, “Hygromycin A prodrugs” (Pfizer Inc., priority 1999, dated 2002).

System: panel of bacterial strains
Assay: Microtiter tray MIC assay against a panel of bacterial strains (NCCLS)
Type: cell-based
Conditions: microtiter trays, compounds dissolved in DMSO
Description: The assay, described below, employs conventional methodology and interpretation criteria and is designed to provide direction for chemical modifications that may lead to compounds with antibacterial activity against susceptible and drug-resistant organisms including, but not limited to, beta-lactam, macrolide and vancomycin resistance. In the assay, a panel of bacterial strains is assembled to include a variety of target pathogenic species, including representatives of antibiotic resistant bacteria. Use of this panel enables the chemical structure/activity relationship to be determined with respect to potency and spectrum of activity. The assay is performed in microtiter trays and interpreted according to Performance Standards for Antimicrobial Disk SusceDtibility Tests—Sixth Edition; Approved Standard, published by The National Committee for Clinical Laboratory Standards (NCCLS) guidelines; the minimum inhibitory concentration (MIC) is used to compare strains. Compounds are initially dissolved in dimethylsulfoxide (DMSO) as stock solutions.

## CC(=Cc1ccc(OC2OC(/C(C)=N/OCc3cccc(Cl)c3)C(O)C2O)c(OC(=O)C(C)(C)C)c1)C(=O)NC1C(O)C(O)C2OCOC2C1O (stereo not shown) [Example 1]
  antibacterial activity in the microtiter assay (MIC): exhibits antibacterial activity
